Reference: US11969401B2, “Compositions and methods for treating or limiting development of age-related macular degeneration” (Arizona Board of Regents on Behalf of The University of …, priority 2019, dated 2024)

Each molecule was assayed on retinal pigment epithelium (RPE) cells (assay: Circadian patterns of VEGF secretion by perfused RPE monolayers (ELISA, Cosinor fit)). Details: alternating 12-hour intervals, conclusion in words.
Format: cell-based
Description: The purpose of this study was to test whether retinal pigment epithelium (RPE) cells express vascular endothelial growth factor (VEGF) in a circadian manner. We tested the hypothesis that 12 hour alternating intervals of dopamine then melatonin combined with L-DOPA would induce RPE cells into a circadian rhythm that controlled VEGF expression. Methods: RPE monolayers were produced on snap-well filters, which were maintained in static culture conditions for at least six months, during which time they became pigmented and well differentiated. […] A baseline of VEGF secretion was established over a 3-week period. After the baseline was established, the cells were perfused with media containing 1 ? M dopamine for 12 hours, then media containing 1 ? M melatonin plus 1 ? M L-DOPA for the next 12 hours. […] Initiation of the next drug dilutes the previous over 12 hours while simultaneously ramping up the new drug. Cells were maintained in this circadian rhythm for at least three cycles. […] The amount of VEGF was plotted against the time of perfusion and fitted using the Cosinor method to find a length of circadian cycle and corresponding p-value for statistical analysis.

**Q.** How did the “effect on RPE VEGF secretion” value turn out when N[C@@H](Cc1ccc(O)c(O)c1)C(=O)O [L-DOPA, 2-amino-3-(3,4-dihydroxyphenyl)propanoic acid] was run?
**A.** antagonize dopamine effects

**Q.** NCCc1ccc(O)c(O)c1 [dopamine] was tested. Which “effect on RPE VEGF secretion” value did it give?
**A.** increase RPE VEGF secretion

**Q.** COc1ccc2[nH]cc(CCNC(C)=O)c2c1 [melatonin, Melatonin] was tested. Which “effect on RPE VEGF secretion” value did it give?
**A.** antagonize dopamine effects
